≈ marks a conversion by molar mass, not a printed value. Where two headings read alike, the source gives them in different places.

The test system of series [1] is MES-SA/Dx5. In words: Cytotoxicity in double coculture, MES-SA/Dx5 eGFP. Particulars: for IC50: read-out: IC50 MES-SA/Dx5; for SR = IC50 (MES-SA)/IC50 (MES-SA/Dx5): double coculture.
Method: Therefore, the novel half-sandwich complexes (1–4) and their corresponding ligands were tested against a coculture of MES-SA and MES-SA/Dx5 cells expressing the fluorescent proteins mCherry or eGFP, respectively.[62]
The tested compounds were dissolved in 50% (v/v) DMSO/PBS’ buffer to prepare 5–10 mM stock solutions, which were diluted in complete culture medium. Constitutive expression of the fluorescent proteins allowed multiplexing in cytotoxicity experiments.[62] […] Serial dilutions of the compounds were added 24 h after seeding. To address the effect of P-gp function, TQ was added at a nontoxic concentration (0.4 μM) 15 min before the test compounds. […] IC50 values and standard deviation were calculated from average pIC50 values from at least 3 independent measurements.
Series [2] in a line: pKa of the ligands by UV–vis titration. Format: physicochemical. Conditions: for pKa: 0.20 M KNO3, UV–vis, I = 0.20 M KNO3, 10 equiv. EDTA. The procedure:
Physico-chemical properties such as aqueous solubility, lipophilicity, and the actual protonation state at a given pH are known to influence the pharmacokinetic behavior of a drug.
An Agilent Cary 8454 diode array spectrophotometer was utilized to obtain UV–vis spectra in the wavelength range 190–1100 nm. The path length (l) was 1 or 2 cm in most cases (the actual l is always indicated in the legends of the figures). The concentrations of the ligands and complexes were between 36 and 100 μM. The ligands were titrated in the presence of 10 equiv of EDTA. Individual samples contained 0–37 μM HSA, 0–206 μM MIM, 0–759 μM AHA, or 0–733 μM FHA. Spectra were always background and baseline corrected. The computer program HypSpec[64] was used to obtain stability constants.

A short description of series [3]: n-octanol/water distribution coefficient (shake-flask). Format: physicochemical. Conditions: pH 7.4. How it is done:
The exchange of the coligand (H2O/Cl^–) changes the overall charge of the complex, thus affecting lipophilicity. […] The traditional shake-flask method was used to obtain distribution coefficients of the ligands as well as of the complexes in n-octanol/buffered aqueous solution (20 mM phosphate, pH = 7.4) at different chloride ion concentrations (4, 24, and 100 mM) using UV–vis spectrophotometry (Agilent Cary 8454 diode array spectrophotometer, Santa Clara, CA, USA) for the analysis. The compounds were dissolved in buffered aqueous solutions previously saturated with n-octanol. Then the aqueous and n-octanol phases were gently mixed in different volume ratios (using 1:60 for the ligands, 1:1 for the RhCp* and 1:2 for the RuCym complexes ratios of n-octanol to buffered aqueous solution volume) for 4 h, followed by phase separation. Then the UV–vis spectrum of the aqueous or n-octanol phase was recorded and compared to the reference spectrum. Stock solutions were made in the aqueous phase, and distribution coefficients (DpH) were calculated by the following equation: [drawing 3]

Series [4] addresses human serum albumin (HSA), Trp214 / site I (Homo sapiens, UniProt P02768). In words: HSA Trp214 fluorescence quenching.
Method: (§4) Next, spectrofluorometric measurements were also performed to gain insight into the binding interactions that may occur in the hydrophobic binding sites of HSA. Tryptophan (Trp214) quenching experiments were conducted for the complexes (1–4) (for complex (3) see Figure S31) and their ligands). […] To monitor the binding at site II, site marker displacement experiments were performed using dansylglycine (DG).
(§5) Fluorescence measurements were carried out on a Fluoromax (Horiba Jobin Yvon, Longjumeau, France) spectrofluorometer using a 1 cm × 1 cm quartz cuvette. […] Excitation wavelengths were 295 nm for Trp-214 quenching and 340 nm for the DG displacement studies. The calculated conditional stability constants for HSA–complex species were obtained using the computer program HypSpec.[64] Calculations always were based on data obtained from at least two independent measurements.
In series [5] the test system is Escherichia coli (ATCC 25922). As to the kind of experiment: Antibacterial MIC, E. coli. The format is cell-based. Conditions: Mueller Hinton Broth, 37 °C, 18 h. The procedure: (§1) Escherichia coli (ATCC 25922) was used as Gram-negative strain and Staphylococcus aureus (ATCC 25923, methicillin-resistant (MRSA) ATCC 43300) strains were applied as Gram-positive bacterial cultures in the experiments. MIC values of the compounds were determined in 96-well plates based on the Clinical and Laboratory Standard Institute guidelines (CLSI guidelines).[76] The stock solutions of the compounds (same as those used for cytotoxicity experiments) were diluted in 100 μL of Mueller Hinton Broth. Then, 10^–4 dilution of an overnight bacterial culture in 100 μL of medium was added to each well, with the exception of the medium control wells.

For series [6], the system named is Staphylococcus aureus (ATCC 25923). In words: Antibacterial MIC, S. aureus. Conditions: Mueller Hinton Broth, 37 °C, 18 h. Format: cell-based. How it is done:
as §1

Series [7] concerns methicillin-resistant S. aureus (MRSA) ATCC 43300. As to the kind of experiment: Antibacterial MIC, MRSA. Format: cell-based, Staphylococcus aureus. Particulars: Mueller Hinton Broth, 37 °C, 18 h. How it is done:
as §1

In series [8] the target is human serum albumin (HSA), site II (Homo sapiens, UniProt P02768). In words: HSA dansylglycine (DG) site marker displacement.
Chain of human serum albumin (HSA), site II (P02768 25-609): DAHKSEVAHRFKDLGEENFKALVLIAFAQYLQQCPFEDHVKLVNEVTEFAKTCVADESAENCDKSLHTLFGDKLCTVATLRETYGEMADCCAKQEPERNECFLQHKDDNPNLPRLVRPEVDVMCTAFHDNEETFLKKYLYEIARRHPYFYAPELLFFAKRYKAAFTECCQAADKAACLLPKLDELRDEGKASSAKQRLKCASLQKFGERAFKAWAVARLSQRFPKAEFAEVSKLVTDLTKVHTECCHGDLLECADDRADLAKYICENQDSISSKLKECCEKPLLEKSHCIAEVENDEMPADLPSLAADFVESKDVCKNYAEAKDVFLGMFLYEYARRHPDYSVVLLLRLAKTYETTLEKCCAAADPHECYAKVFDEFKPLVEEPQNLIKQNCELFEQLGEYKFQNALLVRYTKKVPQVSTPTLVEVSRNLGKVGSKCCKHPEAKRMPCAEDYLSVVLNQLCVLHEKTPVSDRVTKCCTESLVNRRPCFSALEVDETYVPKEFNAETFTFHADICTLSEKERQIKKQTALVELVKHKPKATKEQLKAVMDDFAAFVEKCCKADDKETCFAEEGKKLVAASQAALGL
Method: as §4, §5
The next series concerns MES-SA/B1. As to the kind of experiment: Cytotoxicity in triple coculture, MES-SA/B1 mOrange. Format: cell-based, human. The procedure: (§2) Cell lines were purchased from the American Type Culture Collection (ATCC). MES-SA/B1 is a human MDR1-transfected derivative of MES-SA, and MES-SA mCherry, MES-SA/B1 mOrange, and MES-SA/Dx5 eGFP were engineered to stably express the respective fluorescent proteins previously.[62] Cells were kept in culture medium (DMEM) supplemented with 10% fetal bovine serum, 2 mM L-glutamine, 100 units/mL penicillin, and 100 μg/mL streptomycin (Thermo Fisher). One week before use, MES-SA/Dx5 eGFP cells were treated with 0.5 μM doxorubicin to ensure ABCB1/P-gp expression.
(§3) The tested compounds were dissolved in 50% (v/v) DMSO/PBS’ buffer to prepare 5–10 mM stock solutions, which were diluted in complete culture medium. Constitutive expression of the fluorescent proteins allowed multiplexing in cytotoxicity experiments.[62] Cells were mixed before seeding in 384-well plates: in double cocultures, MES-SA mCherry and MES-SA/Dx5 eGFP cells were seeded at 1250–1250 cells/well (in total 2500 cells/well); while in triple cocultures, MES-SA mCherry, MES-SA/Dx5 eGFP and MES-SA/B1 mOrange cells were seeded at 800–800–800 cells/well (in total 2400 cells/well). Serial dilutions of the compounds were added 24 h after seeding. To address the effect of P-gp function, TQ was added at a nontoxic concentration (0.4 μM) 15 min before the test compounds. The intensity of the fluorescent proteins, which is proportional to cell mass, was measured after 144 h of incubation at the respective fluorescent channels (excitation/emission: eGFP: 485 nm/510 nm; mOrange: 545 nm/567 nm; mCherry: 585 nm/610 nm). pIC50 values were calculated by a custom program written by Judit Sessler in C#.[62] IC50 values and standard deviation were calculated from average pIC50 values from at least 3 independent measurements.

A further series has as its system MES-SA. In words: Cytotoxicity in double coculture, MES-SA mCherry. Particulars: 144 h, read-out: IC50 MES-SA.
Series [9] deals with MES-SA/Dx5. As to the kind of experiment: Cytotoxicity in triple coculture, MES-SA/Dx5 eGFP. Format: cell-based, human. The procedure: as §2, §3

Chain of human serum albumin (HSA), Trp214 / site I (P02768 25-609): as above

For `Oc1c(CN2CCCCC2)cc(Cl)c2cccnc12` [HQCl-pip, 5-chloro-7-(piperidin-1-ylmethyl)quinolin-8-ol], the IC50 was found to be 90 nM in the series with MES-SA/Dx5 [1] (Homo sapiens, MES-SA/Dx5, 144 h); 380 nM in the series with MES-SA/B1 (Homo sapiens, MES-SA/B1, 144 h); 1090 nM with MES-SA (Homo sapiens, MES-SA). Moreover, the figures for the pKa in [2] (read-out: pKa (Npyr/pipH+)), in series [2] (read-out: pKa (NqH+)) and in series [2] (read-out: pKa (OH)) were 11.3 ± 0.12, 2.09 ± 0.05 and 7.42 ± 0.03, respectively. Moreover, the “fraction of HL” value in [2] (pH 7.4, based on the pKa values) is 42%. Besides, the logD at 4 h in series [3] (n-octanol/buffered aqueous solution, n-octanol/H2O, read-out: log D7.4) amounted to 2.54. For the same molecule, the values for the Kd in series [4] and in [8] were 7940 nM and 3980 nM, respectively. For the same molecule, the MIC (in general, the smallest concentration in the dilution series that meets the test's criterion for growth inhibition) was 50 µM (≈ 13.8 µg/mL) in series [5] (Escherichia coli, ATCC25922); 50 µM (≈ 13.8 µg/mL) in series [6] (Staphylococcus aureus, ATCC25923); 25 µM (≈ 6.92 µg/mL) in [7] (Staphylococcus aureus).
Consider [RhCp*(HQCl-Pip)Cl]Cl [(3)], for which the “SR = IC50 (MES-SA)/IC50 (MES-SA/Dx5)” value in the series on MES-SA/Dx5 [1] (+ 0.4 μM tariquidar (TQ)) is on record as 1.3; in the series on MES-SA/Dx5 [1] (without TQ), 9.1. The IC50 in the series with MES-SA/Dx5 [1] (double coculture with MES-SA, 144 h, without TQ) worked out at 220 nM; in the series with MES-SA/Dx5 [9] (144 h), 190 nM; in the series with MES-SA/B1 (144 h), 740 nM; in the series on MES-SA (double coculture with MES-SA/Dx5, without TQ), 2040 nM. For the same molecule, the figures for the logD7.4 result in [3] (c(Cl–) = 4 mM), in series [3] (c(Cl–) = 24 mM) and in series [3] (c(Cl–) = 100 mM) were “+0.34 ± 0.01”, “+0.58 ± 0.01” and “+0.60 ± 0.01”, respectively. For the same molecule, the “logK’(quenching)” value in series [4] (1 μM HSA, λEX = 295 nm (Trp-214), pH 7.4 (PBS’), […], 24 h) is recorded as 5.1 ± 0.1. For the same molecule, the MIC in [5] was 50 µM; in series [6] it was 50 µM; in [7], 25 µM. Further, the “SR Dx5 = IC50 (MES-SA)/IC50 (MES-SA/Dx5)” value in the series on MES-SA/Dx5 [9] was determined as 11.1. Moreover, the “logK’(DG)” value in series [8] (cHSA = cDG = 1 μM, λEX = 335 nm (DG), pH 7.4 (PBS’), […], 24 h) is reported as 5.0 ± 0.1. For the same molecule, the “SR B1 = IC50 (MES-SA)/IC50 (MES-SA/B1)” value with MES-SA/B1 turned out to be 2.9.

The values above are taken from publication PMC11653257, “Organometallic Half-Sandwich Complexes of 8-Hydroxyquinoline-Derived Mannich Bases with Enhanced Solubility: Targeting Multidrug Resistant Cancer” (Inorganic Chemistry, 2024).
